# Experimental data as given in patent US9724340B2, “Antitussive compositions and methods” (Attenua, Inc., priority 2015, dated 2017).
# Tested on: conscious guinea pigs
# Assay: Citric acid inhalation cough model in conscious guinea pigs
# Type: in vivo, guinea pig
# Details: 30 min before citric acid aerosols 0.01M-0.3M
# Description: Cough suppression was evaluated in conscious guinea pigs using a citric acid inhalation model (Smith et al., 2012). Guinea pigs were pretreated intraperitoneally with drug vehicle (saline), α7 PHA543613 (10 mg/kg) (FIG. 3), or (2S,3R)—N-(2-(3-pyridinyl)methyl)-1-azabicyclo[2.2.2]oct-3-yl)benzofuran-2-carboxamide (30 mg/kg) (FIG. 4). Respiration and cough reflexes were measured using a Buxco inhalation chamber connected to a Biopac data acquisition system. Thirty minutes after vehicle or drug administration, animals were challenged in sequence with ascending aerosol concentrations of citric acid (0.01M-0.3M), with each aerosol delivered for 5 minutes and with 5 minutes interval in between challenges. The cumulative coughs evoked were quantified and results are presented as a mean±standard error of the mean (SEM) of n experiments, where n refers to a single animal). Studies were performed using a nonpaired parallel group design. Differences amongst group means were evaluated by t-test or ANOVA, with a p<0.05 considered statistically significant which is represented by an asterisk (*) in FIG. 3 and FIG. 4.
SMILES,"cumulative citric acid evoked coughs (in words) (10 mg/kg intraperitoneally, FIG. 3)","cumulative citric acid evoked coughs (in words) (30 mg/kg intraperitoneally, FIG. 4)"
O=C(N[C@H]1CN2CCC1CC2)c1cc2ccoc2cn1 [PHA543613],markedly inhibited citric acid evoked coughs,–
"O=C(N[C@@H]1C2CCN(CC2)[C@H]1Cc1cccnc1)c1cc2ccccc2o1 [(2S,3R)—N-(2-((3-pyridinyl)methyl)-1-azabicyclo[2.2.2]oct-3-yl)benzofuran-2-carboxamide]",–,markedly inhibited citric acid evoked coughs
